Results taken from patent US20220363705A1, “METHOD FOR MANUFACTURING REVAUDIOSIDE-D-CONTAINING CRYSTALLIZED PRODUCT, AND REVAUDIOSIDE-D-CONTAINING CRYSTALLIZED PRODUCT” (SUNTORY HOLDINGS LIMITED, priority 2019, published 2022).

Assay: Saturated solubility in ethanol solvent (excess loaded, stirred 24 hours, 0.45-um filtrate measured with LCMS)
Type: physicochemical
Conditions: for saturated solubility used in calculation of the degree of supersaturation: 90% by mass of EtOH, 10° C.; for saturated dissolution concentration: 90% ethanol solvent at 10° C., according to FIG. 1
Experimental: The saturated solubility is herein measured according to the following method. That is, 100 ml of a solvent having a predetermined ethanol concentration (w/w) is placed in a container (having a volume of 100 ml or 200 ml, suitably 200 ml), the liquid temperature is set to 10° C. by a water bath in advance, and then the solvent is stirred at 200 rpm, and a target substance is loaded in an excessive amount (amount until suspension is made). After 24 hours, a filtrate is obtained by a 0.45-um membrane filter, and the amount of the target substance (RebA or RebD) included in the filtrate is measured with LCMS. LCMS here used is suitably LCMS 8050 manufactured by Shimadzu Corporation.
Specifically, 100 ml of a solvent having a predetermined ethanol concentration (w/w) was placed in a […] glass container (separable round-bottomed flask, Tokyo Rikakikai Co., Ltd.), set to a predetermined temperature by a water bath (PCC-7000, Tokyo Rikakikai Co., Ltd.) in advance, and then stirred (SPZ-100, Tokyo Rikakikai Co., Ltd.) at 200 rpm, and RebA (J-100, Morita Kagaku Kogyo Co., Ltd.) or RebD (Jining Renewal & Joint International, China) was loaded in an excessive amount (amount until suspension was achieved). After 24 hours, a filtrate was obtained by a 0.45-um membrane filter, the amount of RebA or RebD included in the filtrate was measured with LCMS (LCMS 8050 manufactured by Shimadzu Corporation), and the solubility curve was created. The results are illustrated in FIG. 1.

Compound | saturated solubility used in calculation of the degree of supersaturation [ppm] | saturated dissolution concentration
C=C1C[C@@]23CC[C@H]4[C@@](C)(CCC[C@@]4(C)C(=O)O[C@@H]4O[C@H](CO)[C@@H](O)[C@H](O)[C@H]4O)[C@@H]2CC[C@]1(O[C@@H]1O[C@H](CO)[C@@H](O)[C@H](O[C@@H]2O[C@H](CO)[C@@H](O)[C@H](O)[C@H]2O)[C@H]1O[C@@H]1O[C@H](CO)[C@@H](O)[C@H](O)[C@H]1O)C3 [RebA, rebaudioside A] | 8270.5 | 8,250 ppm
C=C1C[C@@]23CC[C@H]4[C@@](C)(CCC[C@@]4(C)C(=O)O[C@@H]4O[C@H](CO)[C@@H](O)[C@H](O)[C@H]4O[C@@H]4O[C@H](CO)[C@@H](O)[C@H](O)[C@H]4O)[C@@H]2CC[C@]1(O[C@@H]1O[C@H](CO)[C@@H](O)[C@H](O[C@@H]2O[C@H](CO)[C@@H](O)[C@H](O)[C@H]2O)[C@H]1O[C@@H]1O[C@H](CO)[C@@H](O)[C@H](O)[C@H]1O)C3 [RebD, rebaudioside D] | 99.33 | 99.3 ppm
